Measurements from ChEMBL document CHEMBL3286093 (J Med Chem, 2014).
≈ marks a conversion by molar mass, not a printed value. Calls of active or inactive are those of the source. The rule behind the calls is not given here.

Tests used:
[1] = (§1) Cytotoxicity against human HepG2 cells after 48 hrs by Celltiter-Glo assay; type: cell-based; conditions: HepG2 cells, read-out: TC50
in vitro = conditions: human, HepG2 cells
Description: Selectivity ratio TC50 for human HepG2 cells to EC50 for Trypanosoma brucei brucei Lister 427

[2] = test system: Trypanosoma brucei brucei; test: microbe, parasite or virus in culture; conditions: Lister 427, 70 h
Description: Antitrypanosomal activity against bloodstream Trypanosoma brucei brucei Lister 427 after 70 hrs by resazurin assay

HepG2 = test: as §1; type: cell-based; conditions: hepg2, 48 h
[3] = test system: Trypanosoma brucei brucei; test: Effect on phosphatidylcholine level in Trypanosoma brucei brucei Lister 427 at 200 nM after 12 hrs by ES-MS analysis; type: functional, organism-based
[4] = biological target: Serine/threonine-protein kinase mTOR (Homo sapiens, UniProt P42345); test: Inhibition of human recombinant mTOR assessed as inhibition of 4EBP1 phosphorylation after 30 mins by TR-FRET analysis
[5] = biological target: Phosphatidylinositol 4,5-bisphosphate 3-kinase catalytic subunit alpha isoform (Homo sapiens, UniProt P42336); test: Inhibition of human PI3K-alpha assessed as inhibition of […] after 1 hr by TR-FRET analysis
Phosphatidylinositol 4,5-bisphosphate 3-kinase catalytic subunit alpha isoform, sequence (P42336 whole entry, canonical isoform): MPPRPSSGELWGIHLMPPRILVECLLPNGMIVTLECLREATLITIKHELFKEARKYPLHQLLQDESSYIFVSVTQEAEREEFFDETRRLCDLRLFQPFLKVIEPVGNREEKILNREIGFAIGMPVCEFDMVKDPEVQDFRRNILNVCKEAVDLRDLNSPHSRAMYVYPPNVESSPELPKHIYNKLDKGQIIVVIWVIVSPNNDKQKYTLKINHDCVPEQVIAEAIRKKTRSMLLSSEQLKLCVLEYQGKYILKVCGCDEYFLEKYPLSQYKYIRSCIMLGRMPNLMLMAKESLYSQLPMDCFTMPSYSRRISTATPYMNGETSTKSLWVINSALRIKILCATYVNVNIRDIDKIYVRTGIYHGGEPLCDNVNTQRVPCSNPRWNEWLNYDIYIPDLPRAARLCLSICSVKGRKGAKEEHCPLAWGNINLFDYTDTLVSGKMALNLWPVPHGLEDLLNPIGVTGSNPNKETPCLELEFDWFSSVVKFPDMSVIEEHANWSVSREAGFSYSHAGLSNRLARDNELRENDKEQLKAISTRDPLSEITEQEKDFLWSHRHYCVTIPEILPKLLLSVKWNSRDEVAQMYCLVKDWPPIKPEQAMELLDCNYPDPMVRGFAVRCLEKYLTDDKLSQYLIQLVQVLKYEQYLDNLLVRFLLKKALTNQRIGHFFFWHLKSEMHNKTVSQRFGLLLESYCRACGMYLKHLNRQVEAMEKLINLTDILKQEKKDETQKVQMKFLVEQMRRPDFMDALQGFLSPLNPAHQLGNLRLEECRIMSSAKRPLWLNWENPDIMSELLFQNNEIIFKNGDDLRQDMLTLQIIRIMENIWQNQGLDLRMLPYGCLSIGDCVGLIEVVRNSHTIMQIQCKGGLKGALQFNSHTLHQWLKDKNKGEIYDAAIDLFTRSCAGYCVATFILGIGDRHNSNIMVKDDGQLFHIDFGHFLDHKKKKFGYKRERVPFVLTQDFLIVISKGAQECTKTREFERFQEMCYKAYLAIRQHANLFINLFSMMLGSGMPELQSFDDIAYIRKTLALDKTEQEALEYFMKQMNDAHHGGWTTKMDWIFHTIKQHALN

[6] = biological target: Phosphatidylinositol 4,5-bisphosphate 3-kinase catalytic subunit beta isoform (Homo sapiens, UniProt P42338); test: Inhibition of human PI3K-beta assessed as inhibition of […] after 1 hr by TR-FRET analysis
Phosphatidylinositol 4,5-bisphosphate 3-kinase catalytic subunit beta isoform, sequence (P42338 whole entry, canonical isoform): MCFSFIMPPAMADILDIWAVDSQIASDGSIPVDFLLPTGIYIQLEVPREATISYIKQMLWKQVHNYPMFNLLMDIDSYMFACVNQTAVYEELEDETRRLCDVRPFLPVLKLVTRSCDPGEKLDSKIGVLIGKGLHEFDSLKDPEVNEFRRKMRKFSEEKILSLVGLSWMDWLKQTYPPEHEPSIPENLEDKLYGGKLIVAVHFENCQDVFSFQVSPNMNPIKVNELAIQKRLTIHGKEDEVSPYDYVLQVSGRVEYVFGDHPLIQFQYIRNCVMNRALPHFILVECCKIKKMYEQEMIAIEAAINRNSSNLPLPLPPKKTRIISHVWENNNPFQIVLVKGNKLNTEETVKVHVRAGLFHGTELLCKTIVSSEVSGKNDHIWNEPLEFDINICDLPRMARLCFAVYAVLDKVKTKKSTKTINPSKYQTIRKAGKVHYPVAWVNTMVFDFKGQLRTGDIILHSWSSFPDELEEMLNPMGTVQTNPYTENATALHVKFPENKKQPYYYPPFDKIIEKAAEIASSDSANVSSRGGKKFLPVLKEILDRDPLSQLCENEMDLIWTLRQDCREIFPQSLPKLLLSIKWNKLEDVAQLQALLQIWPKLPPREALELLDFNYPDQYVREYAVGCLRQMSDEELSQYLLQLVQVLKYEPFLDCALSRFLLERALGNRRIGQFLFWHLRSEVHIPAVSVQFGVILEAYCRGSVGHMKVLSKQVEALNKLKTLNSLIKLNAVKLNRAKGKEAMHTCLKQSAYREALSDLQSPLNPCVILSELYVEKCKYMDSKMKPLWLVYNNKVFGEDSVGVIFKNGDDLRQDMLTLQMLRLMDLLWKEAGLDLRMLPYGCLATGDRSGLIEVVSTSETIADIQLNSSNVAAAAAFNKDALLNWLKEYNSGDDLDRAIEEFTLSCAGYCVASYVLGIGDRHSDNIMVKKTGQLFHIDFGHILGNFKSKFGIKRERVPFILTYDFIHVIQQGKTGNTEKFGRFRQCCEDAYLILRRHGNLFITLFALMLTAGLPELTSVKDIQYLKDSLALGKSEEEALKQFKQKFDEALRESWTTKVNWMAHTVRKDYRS

[7] = biological target: Phosphatidylinositol 4,5-bisphosphate 3-kinase catalytic subunit gamma isoform (Homo sapiens, UniProt P48736); test: Inhibition of human PI3K-gamma assessed as inhibition of […] after 1 hr by TR-FRET analysis
Phosphatidylinositol 4,5-bisphosphate 3-kinase catalytic subunit gamma isoform, sequence (P48736 whole entry, canonical isoform): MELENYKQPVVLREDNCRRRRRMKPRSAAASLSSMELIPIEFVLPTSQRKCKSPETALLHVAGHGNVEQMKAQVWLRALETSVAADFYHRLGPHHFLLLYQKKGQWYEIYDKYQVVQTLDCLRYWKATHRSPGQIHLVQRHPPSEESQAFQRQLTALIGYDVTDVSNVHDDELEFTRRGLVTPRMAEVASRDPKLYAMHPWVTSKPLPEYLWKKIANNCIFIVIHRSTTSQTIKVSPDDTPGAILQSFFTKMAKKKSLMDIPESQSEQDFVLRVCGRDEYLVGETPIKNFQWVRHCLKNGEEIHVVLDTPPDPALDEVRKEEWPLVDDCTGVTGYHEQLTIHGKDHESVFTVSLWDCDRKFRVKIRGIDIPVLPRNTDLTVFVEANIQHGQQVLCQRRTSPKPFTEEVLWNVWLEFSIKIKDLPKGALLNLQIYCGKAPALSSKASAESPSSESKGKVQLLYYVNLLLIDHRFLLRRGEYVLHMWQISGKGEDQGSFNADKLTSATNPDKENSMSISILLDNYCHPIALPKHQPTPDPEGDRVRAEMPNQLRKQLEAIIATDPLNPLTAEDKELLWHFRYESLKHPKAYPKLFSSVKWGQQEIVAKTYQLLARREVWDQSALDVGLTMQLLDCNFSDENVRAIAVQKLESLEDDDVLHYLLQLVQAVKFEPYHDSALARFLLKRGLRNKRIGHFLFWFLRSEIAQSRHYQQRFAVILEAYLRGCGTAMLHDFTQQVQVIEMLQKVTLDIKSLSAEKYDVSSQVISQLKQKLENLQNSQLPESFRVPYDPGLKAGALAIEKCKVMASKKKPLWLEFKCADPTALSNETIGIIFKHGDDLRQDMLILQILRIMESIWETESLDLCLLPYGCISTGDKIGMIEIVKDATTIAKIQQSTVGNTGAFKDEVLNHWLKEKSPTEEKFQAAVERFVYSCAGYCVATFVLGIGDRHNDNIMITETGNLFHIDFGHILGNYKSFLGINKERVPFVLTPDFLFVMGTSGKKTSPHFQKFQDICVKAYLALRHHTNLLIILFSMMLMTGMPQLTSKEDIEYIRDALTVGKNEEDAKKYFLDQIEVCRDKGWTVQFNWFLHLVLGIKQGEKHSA

[8] = biological target: T1, Phosphatidylinositol 4,5-bisphosphate 3-kinase catalytic subunit delta isoform (Homo sapiens, UniProt O00329); test: Inhibition of human PI3K-delta assessed as inhibition of […] after 1 hr by TR-FRET analysis
T1 sequence (O00329 whole entry): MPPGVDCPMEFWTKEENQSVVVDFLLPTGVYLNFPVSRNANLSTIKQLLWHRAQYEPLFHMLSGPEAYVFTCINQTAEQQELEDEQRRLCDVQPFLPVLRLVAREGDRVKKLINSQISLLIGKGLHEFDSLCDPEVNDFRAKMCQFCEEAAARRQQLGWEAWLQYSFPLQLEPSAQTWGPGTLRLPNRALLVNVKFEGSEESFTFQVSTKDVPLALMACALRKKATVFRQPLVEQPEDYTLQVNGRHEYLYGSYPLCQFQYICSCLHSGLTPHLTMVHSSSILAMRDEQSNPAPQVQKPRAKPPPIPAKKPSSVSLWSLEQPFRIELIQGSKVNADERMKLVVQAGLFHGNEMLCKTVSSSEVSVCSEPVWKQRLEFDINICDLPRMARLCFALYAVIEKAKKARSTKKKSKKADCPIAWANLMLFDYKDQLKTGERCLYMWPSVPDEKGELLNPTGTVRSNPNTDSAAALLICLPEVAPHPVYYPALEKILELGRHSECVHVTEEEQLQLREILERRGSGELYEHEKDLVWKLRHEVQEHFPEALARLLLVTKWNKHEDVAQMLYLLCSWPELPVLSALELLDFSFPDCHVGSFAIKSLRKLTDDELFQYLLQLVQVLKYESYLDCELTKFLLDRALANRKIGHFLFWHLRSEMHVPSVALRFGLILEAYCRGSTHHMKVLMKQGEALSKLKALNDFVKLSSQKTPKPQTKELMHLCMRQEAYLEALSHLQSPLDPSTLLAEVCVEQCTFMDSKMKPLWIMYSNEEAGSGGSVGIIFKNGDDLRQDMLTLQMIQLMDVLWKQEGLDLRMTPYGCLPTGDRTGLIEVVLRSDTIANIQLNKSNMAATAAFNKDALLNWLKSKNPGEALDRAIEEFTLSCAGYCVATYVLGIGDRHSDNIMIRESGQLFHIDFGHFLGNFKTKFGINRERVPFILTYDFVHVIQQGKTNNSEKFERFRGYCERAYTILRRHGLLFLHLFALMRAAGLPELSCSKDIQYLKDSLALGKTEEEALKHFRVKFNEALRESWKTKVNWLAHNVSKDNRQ

[9] = Lipophilicity, log D of the compound at pH 7.4 by HPLC analysis; type: physicochemical; conditions: buffer
[10] = Solubility of compound in phosphate buffer at pH 7.4 after 1 hr; type: physicochemical
[11] = Apparent permeability across artificial membrane after 3 hrs by HPLC analysis; type: physicochemical
[12] = test system: Trypanosoma brucei brucei; test: Effect on sphingomylein level in Trypanosoma brucei brucei Lister 427 at 200 nM after 12 hrs by ES-MS analysis; type: functional, organism-based
[13] = test system: Trypanosoma brucei brucei; test: Effect on phosphotidyl inositol level in Trypanosoma brucei brucei Lister 427 at 200 nM after 12 hrs by ES-MS analysis; type: functional, organism-based
[14] = test system: Trypanosoma brucei brucei; test: Decrease in phosphotidyl inositol phosphate level in Trypanosoma brucei brucei Lister 427 at 200 nM after 12 hrs by ES-MS analysis; type: functional, organism-based
[15] = test system: Trypanosoma brucei brucei; test: Inhibition of receptor-mediated endocytosis in Trypanosoma brucei brucei Lister 427 assessed as decrease in transferrin uptake at 2 X EC50 after 18 hrs; type: functional, organism-based
[16] = test system: Trypanosoma brucei brucei; test: Antitrypanosomal activity against bloodstream Trypanosoma brucei brucei Lister 427 assessed as decrease in number of cell at G1 phase after 18 hrs by PI staining based flow cytometer; type: functional, organism-based

SMILES	CC50 at 48 h [1] [µM]	selectivity ratio (in vitro)	EC50 [2] [nM]	other results
CN1CCN(Cc2ccc(-n3c(=O)n(C)c4cnc5ccc(-c6ccncc6)cc5c43)cc2)CC1	> 7.6	> 2	3350	–
CN1CCN(c2ccc3ncc4c(c3c2)n(-c2ccc(C(C)(C)C#N)cc2)c(=O)n4C)CC1	> 50	–	–	–
Cn1c(=O)n(-c2ccc(C#N)cc2)c2c3cc(-c4ccncc4)ccc3ncc21	–	–	72	TC50 (HepG2): ND(Insoluble)
CN(C)c1ccc(-n2c(=O)n(C)c3cnc4ccccc4c32)cc1	3	0.3	9330	–
N#CCc1ccc(-n2c(=O)[nH]c3cnc4ccc(-c5ccncc5)cc4c32)cc1	> 50	> 250	199	–
Cn1c(=O)n(-c2ccc(N3CCOCC3)cc2)c2c3cc(-c4ccncc4)ccc3ncc21	> 7.6	> 24	316	–
CN(C)c1ccc(-n2c(=O)[nH]c3cnc4ccc(-c5ccncc5)cc4c32)cc1	> 50	> 1100	42	–
Cn1c(=O)n(-c2ccccc2)c2c3ccccc3ncc21	> 50	> 3	18500	–
Cc1ccc2ncc3c(c2c1)n(-c1ccccc1)c(=O)n3C	> 50	> 39	1300	–
CN(C)c1ccc(-n2c(=O)n(C)c3cnc4ccc(-c5ccncc5)cc4c32)cc1	2.34	28	82	–
COc1ccc(-n2c(=O)n(C)c3cnc4ccc(-c5ccncc5)cc4c32)cc1	11.2	67	166	Activity [3]: inactive; IC50 [4]: 380 nM; IC50 [5]: 501 nM; IC50 [6]: 7.94 µM; IC50 [7]: 316 nM; IC50 [8]: 2510 nM; logD [9]: 5.32; solubility kinetic at 1 h [10]: 22 µM (≈ 8.41 µg/mL); permeability [11]: 860 nm/s; Activity [12]: inactive; Activity [13]: Active; inhibition [14]: Active; inhibition [15]: Active; inhibition [16]: inactive
Cn1c(=O)n(-c2ccc(CC#N)cc2)c2c3cc(-c4ccncc4)ccc3ncc21	> 50	> 560	88	–
Cn1c(=O)n(-c2ccc(C(C)(C)C#N)cc2)c2c3cc(-c4cc5ccccc5s4)ccc3ncc21	> 25	> 460	54	–
CN(C)c1ccc(-n2c(=O)[nH]c3cnc4ccccc4c32)cc1	19.1	3	6240	–
Cn1cc(-c2ccc3ncc4c(c3c2)n(-c2ccc(C(C)(C)C#N)cc2)c(=O)n4C)cn1	–	–	51	Activity [3]: inactive; IC50 [4]: 1170 nM; IC50 [5]: 398 nM; IC50 [6]: 7.94 µM; IC50 [7]: 126 nM; IC50 [8]: 794 nM; logD [9]: 5.3; permeability [11]: ND(Insoluble); Activity [12]: inactive; Activity [13]: Active; inhibition [14]: Active; inhibition [15]: inactive; inhibition [16]: Active
Cn1c(=O)n(-c2ccc(C#N)cc2)c2c3cc(-c4cnc5ccccc5c4)ccc3ncc21	> 50	> 540	91	–
Cc1ccc(-n2c(=O)n(C)c3cnc4ccc(-c5ccc(C(=O)O)cc5)cc4c32)cc1	> 50	> 5	9890	–

SMILES	CC50 at 48 h [1] [µM]	selectivity ratio (in vitro)	EC50 [2] [nM]	other results
Cn1c(=O)n(-c2ccc(C(F)(F)F)cc2)c2c3cc(-c4cnc5ccccc5c4)ccc3ncc21	> 25	> 240	103	–
Cc1ccc2ncc3c(c2c1)n(-c1ccc(C(C)(C)C#N)cc1)c(=O)n3C	> 20	> 10	2020	–
Cn1c(=O)n(-c2ccc(C(C)(C)C#N)cc2)c2c3cc(-c4ccncc4)ccc3ncc21	3.43	25	136	–
N#Cc1ccc(-n2c(=O)[nH]c3cnc4ccc(-c5cnc6ccccc6c5)cc4c32)cc1	> 50	> 270	184	–
Cn1c(=O)n(-c2ccc(C(C)(C)C#N)cc2)c2c3cc(C#Cc4cccnc4)ccc3ncc21	0.14	17.5	8	–
Cn1c(=O)n(-c2ccccc2)c2c3cc(-c4cnc5ccccc5c4)ccc3ncc21	> 25	> 1000	24	–
Cn1c(=O)n(-c2ccc(C(C)(C)C#N)cc2)c2c3cc(N)ccc3ncc21	> 50	> 4	10600	–
Cn1c(=O)n(-c2ccc(C(C)(C)C#N)cc2)c2c3cc(N4CCOCC4)ccc3ncc21	> 50	> 24	2040	–
CC(=O)Nc1ccc2ncc3c(c2c1)n(-c1ccc(C(C)(C)C#N)cc1)c(=O)n3C	> 50	> 5	9020	–
Cc1ccc(-n2c(=O)n(C)c3cnc4ccc(-c5ccncc5)cc4c32)cc1	4.78	24	202	Activity [3]: inactive; IC50 [4]: 468 nM; IC50 [5]: 631 nM; IC50 [6]: 31.6 µM; IC50 [7]: 251 nM; IC50 [8]: 2510 nM; logD [9]: 4.95; solubility kinetic at 1 h [10]: 17 µM (≈ 6.23 µg/mL); permeability [11]: 470 nm/s; Activity [12]: inactive; Activity [13]: Active; inhibition [14]: Active; inhibition [15]: Active; inhibition [16]: inactive
Cn1c(=O)n(-c2ccc(C(C)(C)C#N)cc2)c2c3cc(-c4cccnc4)ccc3ncc21	0.575	36	16	–
Cn1c(=O)n(-c2ccc(C(C)(C)C#N)cc2)c2c3cc(-c4ccc(C(F)(F)F)nc4)ccc3ncc21	> 25	> 470	53	–
Cn1c(=O)n(C)c2c3cc(-c4ccncc4)ccc3ncc21	> 20	> 6	3270	–
Cn1c(=O)n(-c2ccc(C(C)(C)C#N)cc2)c2c3cc(-c4cnc5ccccc5c4)ccc3ncc21 [DACTOLISIB]	–	–	–	Activity [3]: inactive; TC50 (HepG2): ND(Insoluble); logD [9]: 6.44; solubility kinetic at 1 h [10]: 19 µM (≈ 8.92 µg/mL); permeability [11]: ND(Insoluble); Activity [12]: inactive; Activity [13]: Active; inhibition [14]: Active; inhibition [15]: Active; inhibition [16]: inactive
Cn1c(=O)n(-c2ccc(C(C)(C)C#N)cc2)c2c3cc(-c4ccccc4)ccc3ncc21	1.82	11	159	–
Cn1c(=O)n(-c2ccc(C(C)(C)C#N)cc2)c2c3ccccc3ncc21	> 50	> 80	624	IC50 [4]: 1620 nM; IC50 [5]: 3980 nM; IC50 [6]: > 30 µM; IC50 [7]: 2000 nM; IC50 [8]: 15800 nM; logD [9]: 4.69; permeability [11]: 570 nm/s
